Converted amounts (≈) assume the structure as drawn.
Key:
[1] = J. Med. Pharm. Chem. 5, p. 1118, Tab. 9; cited from earlier work
physchem = conditions: water
25 coli strains = test: Anti-bacterial action test with discs impregnated with 25 μg of substance (arresting circle diameter); assay type: cell-based; conditions: mean (x) over 25 coli strains
Method: The test for anti-bacterial action […] was performed with discs which were each impregnated with 25 μg of the two substances A and B: […]

[2] = Anti-bacterial action, general statement; conditions: in words; compared with conventional bactericide 5-nitro-8-hydroxycholine
Excerpt: These physical properties are required in order to meet the fundamental needs for resorption required in oral adminstration.

[3] = Toxicity, general statement; conditions: in words; compared with conventional bactericide 5-nitro-8-hydroxycholine
in vivo = conditions: rat, rats

SMILES | bactericidal activity [1] | solubility (physchem) [µg/mL] | zone of inhibition at 25 µg/disc (25 coli strains) [mm] | anti-bacterial action [2] | degree of toxicity [3] | LD50 (in vivo) [mg/kg]
COc1cc(Cc2cnc(N)nc2N)cc(OC)c1OC [2,4-diamino-5-(3',4',5'-trimethoxy-benzyl)-pyrimidine] | such activity is present in the maximum degree | 670 (≈ 2.31 mM) | – | – | – | –
COCCOc1c(OC)cc(Cc2cnc(N)nc2N)cc1OC [substance B, 2,4-diamino-5-(3',5'-dimethoxy-4'-methyldioxyethylene-benzyl)-pyrimidine] | – | 8000 (≈ 23.9 mM) | 28.5 | improved anti-bacterial action | substantially lower degree of toxicity | –
COc1ccc(Cc2cnc(N)nc2N)cc1OC [2,4-diamino-5-(3'-4'-dimethoxybenzyl)-pyrimidine] | has bactericidal activity | – | – | – | – | –
O=[N+]([O-])c1ccc(O)c2ncccc12 [substance A, 5-nitro-8-hydrocholine] | – | – | 20.7 | – | – | 830
